This is an account of results in patent US20220034873A1, “POLYMERIC CHROMOPHORES, COMPOSITIONS COMPRISING THE SAME, AND METHODS OF PREPARING AND USING THE SAME” (North Carolina State University, priority 2018, published 2022).

Series [1] is described as follows: Absorption and emission spectra of dyes D1-D3 and dye-loaded copolymers F1-F3. Format: physicochemical. From the text: Measurements of Absorption and Emission Spectra. The target dye-loaded copolymers F1-F3 were then subjected to investigations of their spectroscopic properties in both organic solvents and aqueous solution. […] Attaching to the 120-kDa amphiphilic copolymer drastically enhances the water solubility of BODIPY D1 and chlorin D2 without strong perturbation on the spectroscopic properties. The emission band for F1 and F2 in water remains the same as the ones measured in organic solutions, showing minimal dye-dye interaction is involved in aqueous solution of F1 and F2 at μM concentration. […] This negative result may be because of the inappropriate size of the copolymer backbone. Larger polymers may be required to encapsulate large hydrophobic chromophores like the phthalocyanine D3.
General Methods. All chemicals obtained commercially were used as received unless otherwise noted. Reagent-grade solvents (CH2Cl2, THF, methanol) and HPLC-grade water were used as received. NMR data was measured in a solution of CDCl3 unless otherwise noted. Noncommercial compounds 1, 2, and 4 were prepared following literature procedures. Analytical SEC experiments were performed with PLgel 10000 Å SEC column, eluted with ACS grade THF (stablized with 400 ppm of BHT) at 35° C. with a flow rate at 1 mL/min. Samples were detected with Agilent 1260 infinity refractive index detector. Absorption spectra were measured on Agilent 8453 and Shimadzu UV1800 instruments using dilute […] solutions of the compound in UV transparent (e.g., quartz) cuvettes versus a solvent blank at room temperature.

The conditions of series [2]: cited from earlier work.

Take `CCCCCCCc1cc2c(cc1CCCCCCC)-c1nc-2nc2[nH]c(nc3nc(nc4[nH]c(n1)c1cc(CCCCCCC)c(CCCCCCC)cc41)-c1cc(C#Cc4ccc(CC(=O)NN)cc4)ccc1-3)c1cc(CCCCCCC)c(CCCCCCC)cc21` [Polymer D3, 2-[4-(N-Aminocarbamoyl)methylphenylethynyl]-9,10,16,17,23,24-hexaheptylphthalocyanine]: in series [1] (in toluene), the λabs max was found to be 702 nm.

In series [1] (in CH2Cl2, room temperature), `Cc1cc(C)c(-c2c3nc(c(-c4ccc(C(=O)NN)cc4)c4ccc(cc5nc(cc6ccc2[nH]6)CC5(C)C)[nH]4)C=C3)c(C)c1` [Polymer D2, 5-[4-(N-Aminocarbamoyl)phenyl]-10-Mesityl-18,18-dimethylchlorin] returned a λabs max of 640 nm.

The compound `Cc1cc(C)c(C2=C3C=CC=[N+]3[B-](F)(F)n3cc(C#CCCCCC(=O)NN)cc32)c(C)c1` [Polymer D1, 2-[6-(N-Aminocarbamoyl)hex-1-yn-1-yl]-8-mesityl-4,4-difluoro-4-bora-3a,4a-diaza-s-indacene] displayed a λabs max in series [1] (in CH2Cl2, room temperature) of 543 nm.

`CCN(CC)c1ccc2c(c1)Oc1cc(N(CC)CC)ccc1C21c2ccccc2C(=O)N1N` [Rhodamine-B hydrazide]: the “change in absorption or fluorescence spectra” value in series [2] (only with Cu(II) and Hg(II) among the cations tested, aqueous solution) was “significant change in absorption or fluorescence spectra”. Further, the “Cu(II) concentration detected quantitatively” value in series [2] (selective detection of Cu(II) in aqueous solution) is reported as 10^−7 M.
